Measurements published in US20230276792A1, “SELECTIVE HERBICIDES BASED ON SUBSTITUTED ISOXAZOLIN CARBOXAMIDES AND CLOQUINTOCET-MEXYL” (Bayer Aktiengesellschaft, priority 2020, published 2023).

Key:
Type in all cases: in vivo
[1] = test system: spring wheat, TRZAS Triso; experiment: Tank-mix post-emergence crop damage, herbicide with and without safener cloquintocet-mexyl, greenhouse; set-up: key to Reduction [Difference]: percentage points of damage: damage without safener minus damage with safener
Protocol: (§1) Seeds of crops (spring wheat, TRZAS; spring barley, HORVS; maize, ZEAMA) were placed in sandy loam soil in peat pots, covered with soil and cultivated in a greenhouse under good growth conditions. Two to three weeks after sowing, the test plants were treated at the 1 to 3-leaf stage. The herbicide/safener active compound combinations according to the invention, formulated as wettable powders or emulsion concentrates, and, in parallel tests, the correspondingly formulated individual active compounds were sprayed onto the green parts of the plants in various dosages using an amount of water of 300 l/ha (converted).
(§2) The pots were returned under good growing conditions in a glasshouse and a visual assessment of herbicidal effects was made at intervals from 1 to 3 weeks after herbicide application (DAT=days after treatment). Assessment was on a percentage basis in comparison with untreated control plants (0%=no injury, 100%=complete kill).
(§3) Reduction [Difference]=herbicide damage without safener−herbicide damage with safener
(§4) Reduction [%]=(Reduction [Difference]*100)/herbicide damage without safener
(§5) b) Plant Species, Variety: TRZAS Triso, Safener (SAF): Cloquintocet-Mexyl

[2] = test system: spring barley, HORVS Montoya; experiment: as above; set-up: key to Reduction [Difference]: damage without safener − damage with safener, % points (0–100% scale)
Protocol: as §1, §2, §3, §4
(§6) a) Plant Species, Variety: HORVS Montoya, Safener (SAF): Cloquintocet-Mexyl

[3] = test system: spring wheat, TRZAS Triso; experiment: Safener seed treatment, post-emergence herbicide application, crop damage; settings: for HER effect + SAF [%] / Reduction [%]: cloquintocet-mexyl 0, 5 g a.i./kg seed; for HER effect [%]: without safener
Text: (§7) For safener seed treatment trials, sufficient seed amounts of the respective crops (spring wheat (TRZAS); spring barley (HORVS)) were weighed into screw cap glass bottles with a minimum volume trice of the seeds.
(§8) As a first step, specified safeners formulated as wettable powder (WP) or wettable granules (WG) were weighed out for the required dosages (g a.i./kg seed), corresponding to the seed amounts. The safener amounts were mixed with a coloured slurry blind formulation type, pre-diluted with milk at 3.5% fat rate (25 mgs slurry formulation plus 2 ml milk per 10 grams of seed). A tube roller was used for coating. The solutions were gradually pipetted each on the rotating seeds followed by coating for min. 3 hours until all liquid had been soaked up by the seeds. Thereafter, the coated seeds were put flat on open trays for drying over night at room temperature.
(§9) Treated seeds were then placed into pots (7 cm diameter) on the surface of sandy loam, pressed down, flat covered with additional soil and finally covered with sandy soil, also pressed down, watered, and kept under good growth conditions in a greenhouse, until the plants had reached 2-leaf-stage (BBCH 12).
(§10) At that stage, post-emergence application of the specified herbicides was done on: • a) pot sets containing plants with safener-coated seeds as described above, • b) as a reference, pot sets of plants without seed treatment.
(§11) The herbicides were formulated as wettable powder (WP). Equivalent to the spray area, compound amounts were weighed out and diluted related to the water application rate (300 l/ha) to an aqueous suspension plus additive (1 l/ha MERO). Dosage related equivalents were conventionally sprayed on trays with the potted plants.
(§12) After application, the test plants were kept under good growth conditions in a greenhouse. Assessment timings were 10 and 21 days after treatment (DAT) with the herbicide, by visual scoring of the crop damage in % (comparison of untreated with treated plants, either sprayed only with herbicide or with herbicide on plants with treated seeds).
as §3, §4, §5

[4] = test system: spring barley, HORVS Montoya; experiment: as above; set-up: key to Reduction [Difference]: % crop damage without safener minus % damage with safener; settings: for Reduction [%] / Reduction [Difference] / HER effect + SAF: cloquintocet-mexyl 0, 5 g a.i./kg seed; for HER effect: without safener
Text: as §7, §8, §9, §10, §11, §12, §3, §4, §6

[5] = 21 DAT, HER dose 8 g a.i./ha, cloquintocet-mexyl 50 g a.i./ha
[6] = 21 DAT, HER dose 8 g a.i./ha, cloquintocet-mexyl 100 g a.i./ha
[7] = 21 DAT, HER dose 2 g a.i./ha, cloquintocet-mexyl 100 g a.i./ha
[8] = 10 DAT, HER dose 1 g a.i./ha, cloquintocet-mexyl 50 g a.i./ha
[9] = 10 DAT, HER dose 2 g a.i./ha, cloquintocet-mexyl 50 g a.i./ha
[10] = 21 DAT, HER dose 16 g a.i./ha, cloquintocet-mexyl 100 g a.i./ha
[11] = 21 DAT, HER dose 1, 5 g a.i./ha, cloquintocet-mexyl 50 g a.i./ha
[12] = 21 DAT, HER dose 1, 5 g a.i./ha
[13] = 21 DAT, HER dose 32 g a.i./ha, cloquintocet-mexyl 100 g a.i./ha

## C=CC1(C(=O)NC2CC=C(C(=O)OC)C2)CC(c2cc(F)cc(F)c2)=NO1 (mixture of isomers) [Example 1.60]
[1]; [5]
  HER effect + SAF: 70%
  Reduction [%]: 25%
  Reduction [Difference]: 23
[1]; 21 DAT, HER dose 8 g a.i./ha, without safener
  HER effect: 93%
[2]; [6]
  HER effect + SAF: 0%
  Reduction [Difference]: 80
[3]; 21 DAT, HER dose 8 g a.i./ha
  HER effect + SAF [%]: 10%
  HER effect [%]: 93%
[3]; 21 DAT, HER dose 32 g a.i./ha
  HER effect + SAF [%]: 10%
  HER effect [%]: 95%

## CC1(C(=O)NC2COC(C(=O)OCc3ccccc3)C2)CC(c2cccc(F)c2)=NO1 (mixture of isomers) [Example 1.79]
[1]; 10 DAT, HER dose 24 g a.i./ha, cloquintocet-mexyl 100 g a.i./ha
  Reduction [Difference]: 50
[4]; 10 DAT, HER dose 24 g a.i./ha
  Reduction [%]: 86%
  Reduction [Difference]: 60
[3]; 10 DAT, HER dose 6 g a.i./ha
  HER effect + SAF [%]: 0%
  HER effect [%]: 30%
[3]; 10 DAT, HER dose 24 g a.i./ha
  HER effect + SAF [%]: 10%
  HER effect [%]: 50%

## C=CC1(C(=O)NC2C=CC(C(=O)OC)C2)CC(c2cc(F)cc(F)c2)=NO1 (centres unmarked) [Example 1.26]
[4]; 21 DAT, HER dose 2 g a.i./ha
  HER effect + SAF: 30%
  Reduction [%]: 68%
  Reduction [Difference]: 63
  HER effect: 93%
[4]; 21 DAT, HER dose 8 g a.i./ha
  Reduction [%]: 47%
  Reduction [Difference]: 45
  HER effect: 95%
[2]; [7]
  HER effect + SAF: 10%
  Reduction [%]: 83%
  Reduction [Difference]: 50
[3]; 21 DAT, HER dose 2 g a.i./ha
  HER effect + SAF [%]: 10%
  Reduction [%]: 89%
  HER effect [%]: 90%
[3]; 21 DAT, HER dose 8 g a.i./ha
  HER effect + SAF [%]: 30%
  Reduction [%]: 68%
  HER effect [%]: 93%

## CC1(C(=O)NC2C=CC(C(=O)O)C2)CC(c2cc(F)cc(F)c2)=NO1 (centres unmarked) [Example 1.36]
[4]; 21 DAT, HER dose 1 g a.i./ha
  HER effect + SAF: 10%
  Reduction [%]: 67%
  HER effect: 30%
[4]; 21 DAT, HER dose 4 g a.i./ha
  Reduction [%]: 78%
  Reduction [Difference]: 73
[4]; 21 DAT, HER dose 16 g a.i./ha
  HER effect + SAF: 40%
  Reduction [%]: 58%
  Reduction [Difference]: 55
[2]; [8]
  Reduction [%]: 38%
  Reduction [Difference]: 30
[3]; 21 DAT, HER dose 1 g a.i./ha
  HER effect + SAF [%]: 0%
  HER effect [%]: 85%
[3]; 21 DAT, HER dose 4 g a.i./ha
  HER effect + SAF [%]: 60%
  Reduction [%]: 35%
  HER effect [%]: 93%
[3]; 21 DAT, HER dose 16 g a.i./ha
  HER effect + SAF [%]: 70%
  HER effect [%]: 95%

## COCCOC(=O)C1C=CC(NC(=O)C2(C)CC(c3cc(Cl)cc(C#N)c3)=NO2)C1 (centres unmarked) [Example 1.5]
[1]; [9]
  HER effect + SAF: 20%
  Reduction [%]: 60%
  Reduction [Difference]: 30
[4]; 21 DAT, HER dose 8 g a.i./ha
  HER effect + SAF: 10%
  Reduction [%]: 80%
  Reduction [Difference]: 40
[4]; 21 DAT, HER dose 32 g a.i./ha
  HER effect + SAF: 20%
  Reduction [%]: 75%
  Reduction [Difference]: 60
[3]; 21 DAT, HER dose 8 g a.i./ha
  HER effect + SAF [%]: 10%
  HER effect [%]: 90%
[3]; 21 DAT, HER dose 32 g a.i./ha
  HER effect + SAF [%]: 30%
  HER effect [%]: 95%

## CC1(C(=O)NC2C=CC(C(=O)OCCCl)C2)CC(c2cc(F)cc(F)c2)=NO1 (mixture of isomers) [Example 1.47]
[1]; 21 DAT, HER dose 4 g a.i./ha, cloquintocet-mexyl 50 g a.i./ha
  HER effect + SAF: 0%
[1]; [10]
  HER effect + SAF: 5%
  Reduction [%]: 94%
  Reduction [Difference]: 75
[4]; 21 DAT, HER dose 12 g a.i./ha
  HER effect + SAF: 0%
  HER effect: 20%
[4]; 21 DAT, HER dose 48 g a.i./ha
  Reduction [Difference]: 75
[3]; 21 DAT, HER dose 4 g a.i./ha
  HER effect + SAF [%]: 10%
  HER effect [%]: 30%
[3]; 21 DAT, HER dose 16 g a.i./ha
  HER effect + SAF [%]: 10%
  HER effect [%]: 80%

## C=CC1(C(=O)NC2C=C(C(=O)OCC#N)OC2)CC(c2cc(F)cc(F)c2)=NO1 (centres unmarked) [Example 1.91]
[1]; [11]
  Reduction [%]: 71%
  Reduction [Difference]: 50
[1]; 21 DAT, HER dose 24 g a.i./ha, cloquintocet-mexyl 100 g a.i./ha
  Reduction [%]: 75%
[3]; [12]
  HER effect + SAF [%]: 20%
  Reduction [%]: 71%
  HER effect [%]: 70%
[3]; 21 DAT, HER dose 6 g a.i./ha
  HER effect + SAF [%]: 30%
  HER effect [%]: 90%
[3]; 21 DAT, HER dose 24 g a.i./ha
  HER effect + SAF [%]: 20%
  Reduction [%]: 75%
  HER effect [%]: 80%

## C=CC1(C(=O)NC2C=CC(C(=O)O)C2)CC(c2cc(F)cc(F)c2)=NO1 (centres unmarked) [Example 1.58]
[1]; [5]
  HER effect + SAF: 50%
  Reduction [%]: 46%
  Reduction [Difference]: 43
[1]; [13]
  HER effect + SAF: 60%
  Reduction [%]: 35%
  Reduction [Difference]: 33
[3]; 21 DAT, HER dose 2 g a.i./ha
  HER effect + SAF [%]: 0%
  HER effect [%]: 85%
[3]; 21 DAT, HER dose 8 g a.i./ha
  HER effect + SAF [%]: 10%
  HER effect [%]: 93%
[3]; 21 DAT, HER dose 32 g a.i./ha
  HER effect + SAF [%]: 20%
  Reduction [%]: 78%
  HER effect [%]: 93%
